This note sets out measurements from patent publication US8999940B2 (Ipsen Pharma S.A.S., priority 2008, dated 2015).

For data set [1], the target named is T1, human recombinant GIP receptor (Homo sapiens, UniProt P48546).
T1 construct: expressed in transfected cells; host or cells: CHO-K1 clonal cells (membrane preparation)
T1 sequence (P48546 22-466): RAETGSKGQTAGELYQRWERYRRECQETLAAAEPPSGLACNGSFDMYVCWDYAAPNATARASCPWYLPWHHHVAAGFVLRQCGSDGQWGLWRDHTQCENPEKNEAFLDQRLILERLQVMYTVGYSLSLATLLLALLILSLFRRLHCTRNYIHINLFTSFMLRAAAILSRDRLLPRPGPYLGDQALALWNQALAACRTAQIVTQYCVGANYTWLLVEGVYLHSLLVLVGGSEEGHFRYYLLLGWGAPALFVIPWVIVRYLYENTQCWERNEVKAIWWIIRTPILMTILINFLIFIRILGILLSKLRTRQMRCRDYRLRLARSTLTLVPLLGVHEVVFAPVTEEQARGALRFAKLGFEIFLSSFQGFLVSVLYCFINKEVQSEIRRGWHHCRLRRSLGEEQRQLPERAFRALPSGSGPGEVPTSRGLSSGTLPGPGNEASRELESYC
As to the kind of experiment: In vitro hGIP receptor binding assay. The procedure: A. In Vitro hGIP Receptor Binding Assay […] The incubations were terminated by rapid filtration through GF/C filters (pre-soaked in 0.5% polyethylenimine) using a Brandel filtration manifold. Each tube and filter were then washed three times with 5-ml aliquots of ice-cold buffer.

Data set [2] is described as follows: Rat plasma half-life assay. The following applies: 37° C., LC-MS, read-out: Rat Plasma T½ (converted). In kind it is in vitro ADME.
Data set [3] is described as follows: Human plasma half-life assay. In kind it is in vitro ADME. To be noted: 37° C., LC-MS, read-out: Human Plasma T½ (converted).

One may read the Ki as the dissociation constant of the complex between target and ligand, obtained from inhibition or displacement.

Where no end group is shown, it is not given here. [ ]: non-standard residue; d: D form. Phe(4-Me) = Cc1ccc(C[C@H](N)C(=O)O)cc1; Ac5c = NC1(C(=O)O)CCCC1; Aib = CC(C)(N)C(=O)O Where only a bound is given, the exact number is not on record here.

For `CCCC[C@H](NC(=O)[C@H](C)NC(=O)[C@@H](NC(=O)C1(NC(=O)[C@H](Cc2ccc(O)cc2)NC(=O)[C@H](CC(=O)O)NC(=O)[C@H](CO)NC(=O)[C@@H](NC(=O)[C@H](Cc2ccccc2)NC(=O)[C@@H](NC(=O)CNC(=O)[C@H](CCC(=O)O)NC(=O)C(C)(C)NC(=O)[C@@H](N)Cc2ccc(O)c(I)c2)[C@@H](C)O)[C@@H](C)CC)CCCC1)[C@@H](C)CC)C(=O)N[C@@H](CC(=O)O)C(=O)N[C@@H](CCCCN)C(=O)N[C@H](C(=O)N[C@@H](Cc1c[nH]cn1)C(=O)N[C@@H](CCC(N)=O)C(=O)N[C@@H](CCC(N)=O)C(=O)N[C@@H](CC(=O)O)C(=O)N[C@@H](Cc1ccccc1)C(=O)N[C@H](C(=O)N[C@@H](CC(N)=O)C(=O)N[C@@H](Cc1c[nH]c2ccccc12)C(=O)N[C@@H](CC(C)C)C(=O)N[C@@H](CC(C)C)C(=O)N[C@@H](C)C(=O)N[C@@H](CCC(N)=O)C(=O)N[C@@H](CCCCN)C(=O)NCC(=O)N[C@@H](CCCCN)C(=O)N[C@@H](CCCCN)C(=O)N[C@@H](CC(N)=O)C(=O)N[C@@H](CC(=O)O)C(=O)N[C@@H](Cc1c[nH]c2ccccc12)C(=O)N[C@@H](CCCCN)C(=O)N[C@@H](Cc1c[nH]cn1)C(=O)N[C@@H](CC(N)=O)C(=O)N[C@H](C(=O)N[C@H](C(=O)N[C@@H](CCC(N)=O)C(=O)O)[C@@H](C)O)[C@@H](C)CC)C(C)C)[C@@H](C)CC` [Example 16, (3I-Tyr^1, Aib^2, A5c^11, Nle^14)hGIP(1-42)-OH], the inhibition constant Ki in data set [1] is 5.03 nM. In addition, the half-life at 0.1 mg/ml is 18.5 h in data set [2] and 52.1 h in data set [3].

Consider “[Phe(4-Me)][Aib]EGTFISDY[Ac5c]IAMDKIHQQDFVNWLLAQKGKKNDWKHNITQH-OH [Example 78, (4Me-Phe^1, Aib^2, A5c^11, His^43)hGIP(1-43)-OH]”, for which the inhibition constant Ki in data set [1] came out at 9.13 nM. Further, the half-life at 0.1 mg/ml was more than 52 h in data set [2] and 14.9 h in data set [3].

Regarding `CC[C@H](C)[C@H](NC(=O)[C@H](CCCCN)NC(=O)[C@H](CC(=O)O)NC(=O)[C@H](CCSC)NC(=O)[C@H](C)NC(=O)[C@@H](NC(=O)C1(NC(=O)[C@H](Cc2ccc(O)cc2)NC(=O)[C@H](CC(=O)O)NC(=O)[C@H](CO)NC(=O)[C@@H](NC(=O)[C@H](Cc2ccccc2)NC(=O)[C@@H](NC(=O)CNC(=O)[C@H](CCC(=O)O)NC(=O)C(C)(C)NC(=O)[C@@H](N)Cc2ccc(OC(C)=O)cc2)[C@@H](C)O)[C@@H](C)CC)CCCC1)[C@@H](C)CC)C(=O)N[C@@H](Cc1c[nH]cn1)C(=O)N[C@@H](CCC(N)=O)C(=O)N[C@@H](CCC(N)=O)C(=O)N[C@@H](CC(=O)O)C(=O)N[C@@H](Cc1ccccc1)C(=O)N[C@H](C(=O)N[C@@H](CC(N)=O)C(=O)N[C@@H](Cc1c[nH]c2ccccc12)C(=O)N[C@@H](CC(C)C)C(=O)N[C@@H](CC(C)C)C(=O)N[C@@H](C)C(=O)N[C@@H](CCC(N)=O)C(=O)N[C@@H](CCCCN)C(=O)NCC(=O)N[C@@H](CCCCN)C(=O)N[C@@H](CCCCN)C(=O)N[C@@H](CC(N)=O)C(=O)N[C@@H](CC(=O)O)C(=O)N[C@@H](Cc1c[nH]c2ccccc12)C(=O)N[C@@H](CCCCN)C(=O)N[C@@H](Cc1c[nH]cn1)C(=O)N[C@@H](CC(N)=O)C(=O)N[C@H](C(=O)NC1(C(=O)N[C@@H](CCC(N)=O)C(=O)O)CCCC1)[C@@H](C)CC)C(C)C` [Example 29, [Tyr(Ac)^1, Aib^2, A5c^11, 41]hGIP(1-42)-OH], in data set [1], the inhibition constant Ki is 0.73 nM. Also, the results for the half-life at 0.1 mg/ml in data set [2] and in data set [3] were 18.9 h and 29.5 h, respectively.

Turning to `CCCC[C@H](NC(=O)[C@H](C)NC(=O)[C@@H](NC(=O)C1(NC(=O)[C@H](Cc2ccc(O)cc2)NC(=O)[C@H](CC(=O)O)NC(=O)[C@H](CO)NC(=O)[C@@H](NC(=O)[C@H](Cc2ccccc2)NC(=O)[C@@H](NC(=O)CNC(=O)[C@H](CCC(=O)O)NC(=O)C(C)(C)NC(=O)[C@@H](N)Cc2cc(I)c(O)c(I)c2)[C@@H](C)O)[C@@H](C)CC)CCCC1)[C@@H](C)CC)C(=O)N[C@@H](CC(=O)O)C(=O)N[C@@H](CCCCN)C(=O)N[C@H](C(=O)N[C@@H](Cc1c[nH]cn1)C(=O)N[C@@H](CCC(N)=O)C(=O)N[C@@H](CCC(N)=O)C(=O)N[C@@H](CC(=O)O)C(=O)N[C@@H](Cc1ccccc1)C(=O)N[C@H](C(=O)N[C@@H](CC(N)=O)C(=O)N[C@@H](Cc1c[nH]c2ccccc12)C(=O)N[C@@H](CC(C)C)C(=O)N[C@@H](CC(C)C)C(=O)N[C@@H](C)C(=O)N[C@@H](CCC(N)=O)C(=O)N[C@@H](CCCCN)C(=O)NCC(=O)N[C@@H](CCCCN)C(=O)N[C@@H](CCCCN)C(=O)N[C@@H](CC(N)=O)C(=O)N[C@@H](CC(=O)O)C(=O)N[C@@H](Cc1c[nH]c2ccccc12)C(=O)N[C@@H](CCCCN)C(=O)N[C@@H](Cc1c[nH]cn1)C(=O)N[C@@H](CC(N)=O)C(=O)N[C@H](C(=O)N[C@H](C(=O)N[C@@H](CCC(N)=O)C(=O)O)[C@@H](C)O)[C@@H](C)CC)C(C)C)[C@@H](C)CC` [Example 17, (3,51-Tyr^1, Aib^2, A5c^11, Nle^14)hGIP(1-42)-OH], in data set [1], the inhibition constant (Ki) was 77.9 nM. Also, the half-life at 0.1 mg/ml was 30.1 h in data set [2] and more than 72 h in data set [3].

Regarding `CC[C@H](C)[C@H](NC(=O)[C@H](CCCCN)NC(=O)[C@H](CC(=O)O)NC(=O)[C@H](CCSC)NC(=O)[C@H](C)NC(=O)[C@@H](NC(=O)C1(NC(=O)[C@H](Cc2ccc(O)cc2)NC(=O)[C@H](CC(=O)O)NC(=O)[C@H](CO)NC(=O)[C@@H](NC(=O)[C@H](Cc2ccccc2)NC(=O)[C@@H](NC(=O)CNC(=O)[C@H](CCC(=O)O)NC(=O)C(C)(C)NC(=O)[C@@H](N)Cc2c(C)cc(O)cc2C)[C@@H](C)O)[C@@H](C)CC)CCCC1)[C@@H](C)CC)C(=O)N[C@@H](Cc1c[nH]cn1)C(=O)N[C@@H](CCC(N)=O)C(=O)N[C@@H](CCC(N)=O)C(=O)N[C@@H](CC(=O)O)C(=O)N[C@@H](Cc1ccccc1)C(=O)N[C@H](C(=O)N[C@@H](CC(N)=O)C(=O)N[C@@H](Cc1c[nH]c2ccccc12)C(=O)N[C@@H](CC(C)C)C(=O)N[C@@H](CC(C)C)C(=O)N[C@@H](C)C(=O)N[C@@H](CCC(N)=O)C(=O)N[C@@H](CCCCN)C(=O)NCC(=O)N[C@@H](CCCCN)C(=O)N[C@@H](CCCCN)C(=O)N[C@@H](CC(N)=O)C(=O)N[C@@H](CC(=O)O)C(=O)N[C@@H](Cc1c[nH]c2ccccc12)C(=O)N[C@@H](CCCCN)C(=O)N[C@@H](Cc1c[nH]cn1)C(=O)N[C@@H](CC(N)=O)C(=O)N[C@H](C(=O)N[C@H](C(=O)N[C@@H](CCC(N)=O)C(=O)N[C@@H](Cc1c[nH]cn1)C(=O)O)[C@@H](C)O)[C@@H](C)CC)C(C)C` [Example 53, (2,6Me-Tyr^1, Aib^2, A5c^11, His^43)hGIP(1-43)-OH], the inhibitory constant (Ki) in data set [1] is 35 nM. The half-life at 0.1 mg/ml was 23.2 h in data set [2] and 20 h in data set [3].

For `CCCC[C@H](NC(=O)[C@H](C)NC(=O)[C@@H](NC(=O)C1(NC(=O)[C@H](Cc2ccc(O)cc2)NC(=O)[C@H](CC(=O)O)NC(=O)[C@H](CO)NC(=O)[C@@H](NC(=O)[C@H](Cc2ccccc2)NC(=O)[C@@H](NC(=O)CNC(=O)[C@H](CCC(=O)O)NC(=O)C(C)(C)NC(=O)[C@@H](N)CCc2ccc(O)cc2)[C@@H](C)O)[C@@H](C)CC)CCCC1)[C@@H](C)CC)C(=O)N[C@@H](CC(=O)O)C(=O)N[C@@H](CCCCN)C(=O)N[C@H](C(=O)N[C@@H](Cc1c[nH]cn1)C(=O)N[C@@H](CCC(N)=O)C(=O)N[C@@H](CCC(N)=O)C(=O)N[C@@H](CC(=O)O)C(=O)N[C@@H](Cc1ccccc1)C(=O)N[C@H](C(=O)N[C@@H](CC(N)=O)C(=O)N[C@@H](Cc1c[nH]c2ccccc12)C(=O)N[C@@H](CC(C)C)C(=O)N[C@@H](CC(C)C)C(=O)N[C@@H](C)C(=O)N[C@@H](CCC(N)=O)C(=O)N[C@@H](CCCCN)C(=O)NCC(=O)N[C@@H](CCCCN)C(=O)N[C@@H](CCCCN)C(=O)N[C@@H](CC(N)=O)C(=O)N[C@@H](CC(=O)O)C(=O)N[C@@H](Cc1c[nH]c2ccccc12)C(=O)N[C@@H](CCCCN)C(=O)N[C@@H](Cc1c[nH]cn1)C(=O)N[C@@H](CC(N)=O)C(=O)N[C@H](C(=O)N[C@H](C(=O)N[C@@H](CCC(N)=O)C(=O)O)[C@@H](C)O)[C@@H](C)CC)C(C)C)[C@@H](C)CC` [Example 19, (hTyr^1, Aib^2, A5c^11, Nle^14)hGIP(1-42)-OH], the inhibition constant (Ki) in data set [1] was 77.3 nM. Moreover, the half-life at 0.1 mg/ml in data set [2] is 15.2 h; in data set [3] it was more than 72 h.
